Measurements published in ChEMBL document CHEMBL4017493, “Peptide Half-Life Extension: Divalent, Small-Molecule Albumin Interactions Direct the Systemic Properties of Glucagon-Like Peptide 1 (GLP-1) Analogues” (J Med Chem, 2017).
Calls of active or inactive are those of the source. The calls are words filed in the database; no cut-off is given here.

Key:
[1] = test system: Mus musculus; assay: Antiobesity activity in NMRI mouse assessed as reduction in cumulative food intake at 10 nmol/ml, sc measured up to 20 hrs; format: functional, organism-based
[2] = Induction of self aggregation in pH 7.4 PBS buffer assessed as retention volume by size exclusion chromatographic method
[3] = molecular target: Albumin (Homo sapiens, UniProt P02768); assay: Binding affinity to human serum albumin by SPR analysis; format: ADME; conditions: isolated protein
Albumin, sequence (P02768 whole entry): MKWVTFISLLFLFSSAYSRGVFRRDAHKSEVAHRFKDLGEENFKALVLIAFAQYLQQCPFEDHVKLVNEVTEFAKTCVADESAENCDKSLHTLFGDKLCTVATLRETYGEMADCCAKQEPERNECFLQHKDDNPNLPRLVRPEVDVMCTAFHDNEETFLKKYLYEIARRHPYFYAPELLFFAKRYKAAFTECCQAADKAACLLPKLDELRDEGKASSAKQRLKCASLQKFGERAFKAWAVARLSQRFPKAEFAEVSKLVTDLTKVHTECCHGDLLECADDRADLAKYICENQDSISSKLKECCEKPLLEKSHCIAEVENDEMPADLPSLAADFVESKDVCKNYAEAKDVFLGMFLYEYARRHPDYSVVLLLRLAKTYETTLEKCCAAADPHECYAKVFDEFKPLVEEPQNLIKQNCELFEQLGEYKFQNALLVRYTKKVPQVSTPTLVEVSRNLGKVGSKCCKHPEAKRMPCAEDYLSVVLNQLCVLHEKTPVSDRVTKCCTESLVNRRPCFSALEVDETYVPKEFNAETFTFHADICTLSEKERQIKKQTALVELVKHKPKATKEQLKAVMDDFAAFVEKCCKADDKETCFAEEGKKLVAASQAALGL

[4] = Half life in iv dosed human; format: ADME, organism-based; conditions: in vivo
[5] = test system: Mus musculus; assay: Antidiabetic activity in NMRI mouse assessed as blood glucose AUC (0 to 120 mins) at 10 nmol/ml, sc administered 45 mins prior to glucose challenge by OGTT (reference value: 1725 +/- 257 mmol/L); format: functional, organism-based; design: dose 10 nmol/ml, time < 2 hr
[6] = test system: Mus musculus; assay: Antiobesity activity in NMRI mouse assessed as reduction in acute food intake at 10 nmol/ml, sc measured up to 20 hrs; format: functional, organism-based
[7] = Half life in C57Bl/6 mouse plasma at 10 nmol/ml, sc; format: ADME
[8] = Tmax in C57Bl/6 mouse plasma at 10 nmol/ml, sc; format: ADME
[9] = Induction of monodisperse self aggregation in pH 7.4 PBS buffer by dynamic light scattering method
[10] = Induction of self aggregation in pH 7.4 PBS buffer assessed as supramolecular hydrodynamic radii at 1 mg/ml by dynamic light scattering method
[11] = test system: Mus musculus; assay: Antiobesity activity in NMRI mouse assessed as food intake at 10 nmol/ml, sc measured after 20 hrs (reference value: 3.51 +/- 0.49 g); format: functional

Compound | Activity [1] | Vr [2] | PB [3] | other results
CC[C@H](C)[C@H](NC(=O)[C@H](Cc1ccccc1)NC(=O)[C@H](CCC(=O)O)NC(=O)[C@H](CCCCNC(=O)COCCOCCNC(=O)[C@H](CCCNC(=O)COc1ccc(-c2ccc(F)cc2F)cc1C(=O)O)NC(=O)CC[C@H](NC(=O)Cc1c(C)n(C(=O)c2ccc(Cl)cc2)c2ccc(OC)cc12)C(=O)O)NC(=O)[C@H](C)NC(=O)[C@H](C)NC(=O)[C@H](CCC(N)=O)NC(=O)CNC(=O)[C@H](CCC(=O)O)NC(=O)[C@H](CC(C)C)NC(=O)[C@H](Cc1ccc(O)cc1)NC(=O)[C@H](CO)NC(=O)[C@H](CO)NC(=O)[C@@H](NC(=O)[C@H](CC(=O)O)NC(=O)[C@H](CO)NC(=O)[C@@H](NC(=O)[C@H](Cc1ccccc1)NC(=O)[C@@H](NC(=O)CNC(=O)[C@H](CCC(=O)O)NC(=O)[C@H](C)NC(=O)[C@@H](N)Cc1cnc[nH]1)[C@@H](C)O)[C@@H](C)O)C(C)C)C(=O)N[C@@H](C)C(=O)N[C@@H](Cc1c[nH]c2ccccc12)C(=O)N[C@@H](CC(C)C)C(=O)N[C@H](C(=O)N[C@@H](CCCNC(=N)N)C(=O)NCC(=O)N[C@@H](CCCNC(=N)N)C(=O)NCC(=O)O)C(C)C | Active |  |  | 
CC[C@H](C)[C@H](NC(=O)[C@H](Cc1ccccc1)NC(=O)[C@H](CCC(=O)O)NC(=O)[C@H](CCCCNC(=O)COc1ccc(-c2ccccc2)cc1C(=O)O)NC(=O)[C@H](C)NC(=O)[C@H](C)NC(=O)[C@H](CCC(N)=O)NC(=O)CNC(=O)[C@H](CCC(=O)O)NC(=O)[C@H](CC(C)C)NC(=O)[C@H](Cc1ccc(O)cc1)NC(=O)[C@H](CO)NC(=O)[C@H](CO)NC(=O)[C@@H](NC(=O)[C@H](CC(=O)O)NC(=O)[C@H](CO)NC(=O)[C@@H](NC(=O)[C@H](Cc1ccccc1)NC(=O)[C@@H](NC(=O)CNC(=O)[C@H](CCC(=O)O)NC(=O)[C@H](C)NC(=O)[C@@H](N)Cc1cnc[nH]1)[C@@H](C)O)[C@@H](C)O)C(C)C)C(=O)N[C@@H](C)C(=O)N[C@@H](Cc1c[nH]c2ccccc12)C(=O)N[C@@H](CC(C)C)C(=O)N[C@H](C(=O)N[C@@H](CCCNC(=N)N)C(=O)NCC(=O)N[C@@H](CCCNC(=N)N)C(=O)NCC(=O)O)C(C)C |  | 9.8 to 16 mL |  | 
CC[C@H](C)[C@H](NC(=O)[C@H](Cc1ccccc1)NC(=O)[C@H](CCC(=O)O)NC(=O)[C@H](CCCCNC(=O)COc1ccc(-c2ccc(F)cc2F)cc1C(=O)O)NC(=O)[C@H](C)NC(=O)[C@H](C)NC(=O)[C@H](CCC(N)=O)NC(=O)CNC(=O)[C@H](CCC(=O)O)NC(=O)[C@H](CC(C)C)NC(=O)[C@H](Cc1ccc(O)cc1)NC(=O)[C@H](CO)NC(=O)[C@H](CO)NC(=O)[C@@H](NC(=O)[C@H](CC(=O)O)NC(=O)[C@H](CO)NC(=O)[C@@H](NC(=O)[C@H](Cc1ccccc1)NC(=O)[C@@H](NC(=O)CNC(=O)[C@H](CCC(=O)O)NC(=O)[C@H](C)NC(=O)[C@@H](N)Cc1cnc[nH]1)[C@@H](C)O)[C@@H](C)O)C(C)C)C(=O)N[C@@H](C)C(=O)N[C@@H](Cc1c[nH]c2ccccc12)C(=O)N[C@@H](CC(C)C)C(=O)N[C@H](C(=O)N[C@@H](CCCNC(=N)N)C(=O)NCC(=O)N[C@@H](CCCNC(=N)N)C(=O)NCC(=O)O)C(C)C | inactive |  | Dose-dependent effect | 
CC[C@H](C)[C@H](NC(=O)[C@H](Cc1ccccc1)NC(=O)[C@H](CCC(=O)O)NC(=O)[C@H](CCCCN)NC(=O)[C@H](C)NC(=O)[C@H](C)NC(=O)[C@H](CCC(N)=O)NC(=O)CNC(=O)[C@H](CCC(=O)O)NC(=O)[C@H](CC(C)C)NC(=O)[C@H](Cc1ccc(O)cc1)NC(=O)[C@H](CO)NC(=O)[C@H](CO)NC(=O)[C@@H](NC(=O)[C@H](CC(=O)O)NC(=O)[C@H](CO)NC(=O)[C@@H](NC(=O)[C@H](Cc1ccccc1)NC(=O)[C@@H](NC(=O)CNC(=O)[C@H](CCC(=O)O)NC(=O)[C@H](C)NC(=O)[C@H](Cc1cnc[nH]1)NC(=O)[C@H](CCCNC(=N)N)NC(=O)[C@H](CCC(=O)O)NC(=O)[C@H](Cc1ccccc1)NC(=O)[C@H](CCC(=O)O)NC(=O)[C@H](CC(=O)O)NC(=O)[C@@H](N)Cc1cnc[nH]1)[C@@H](C)O)[C@@H](C)O)C(C)C)C(=O)N[C@@H](C)C(=O)N[C@@H](Cc1c[nH]c2ccccc12)C(=O)N[C@@H](CC(C)C)C(=O)N[C@H](C(=O)N[C@@H](CCCCN)C(=O)NCC(=O)N[C@@H](CCCNC(=N)N)C(N)=O)C(C)C |  |  |  | half-life [4]: < 2 min
CC[C@H](C)[C@H](NC(=O)[C@H](Cc1ccccc1)NC(=O)[C@H](CCC(=O)O)NC(=O)[C@H](CCCCNC(=O)CC[C@H](NC(=O)Cc1c(C)n(C(=O)c2ccc(Cl)cc2)c2ccc(OC)cc12)C(=O)O)NC(=O)[C@H](C)NC(=O)[C@H](C)NC(=O)[C@H](CCC(N)=O)NC(=O)CNC(=O)[C@H](CCC(=O)O)NC(=O)[C@H](CC(C)C)NC(=O)[C@H](Cc1ccc(O)cc1)NC(=O)[C@H](CO)NC(=O)[C@H](CO)NC(=O)[C@@H](NC(=O)[C@H](CC(=O)O)NC(=O)[C@H](CO)NC(=O)[C@@H](NC(=O)[C@H](Cc1ccccc1)NC(=O)[C@@H](NC(=O)CNC(=O)[C@H](CCC(=O)O)NC(=O)[C@H](C)NC(=O)[C@@H](N)Cc1cnc[nH]1)[C@@H](C)O)[C@@H](C)O)C(C)C)C(=O)N[C@@H](C)C(=O)N[C@@H](Cc1c[nH]c2ccccc12)C(=O)N[C@@H](CC(C)C)C(=O)N[C@H](C(=O)N[C@@H](CCCNC(=N)N)C(=O)NCC(=O)N[C@@H](CCCNC(=N)N)C(=O)NCC(=O)O)C(C)C | inactive | 6.8 to 16 mL | Dose-dependent effect | AUC [5]: 614 mmol·min/L; Activity [6]: inactive; half-life [7]: 55 min; Tmax [8]: 30 min
CC[C@H](C)[C@H](NC(=O)[C@H](Cc1ccccc1)NC(=O)[C@H](CCC(=O)O)NC(=O)[C@H](CCCCN)NC(=O)[C@H](C)NC(=O)[C@H](C)NC(=O)[C@H](CCC(N)=O)NC(=O)CNC(=O)[C@H](CCC(=O)O)NC(=O)[C@H](CC(C)C)NC(=O)[C@H](Cc1ccc(O)cc1)NC(=O)[C@H](CO)NC(=O)[C@H](CO)NC(=O)[C@@H](NC(=O)[C@H](CC(=O)O)NC(=O)[C@H](CO)NC(=O)[C@@H](NC(=O)[C@H](Cc1ccccc1)NC(=O)[C@@H](NC(=O)CNC(=O)[C@H](CCC(=O)O)NC(=O)[C@H](C)NC(=O)[C@@H](N)Cc1c[nH]cn1)[C@@H](C)O)[C@@H](C)O)C(C)C)C(=O)N[C@@H](C)C(=O)N[C@@H](Cc1c[nH]c2ccccc12)C(=O)N[C@@H](CC(C)C)C(=O)N[C@H](C(=O)N[C@@H](CCCNC(=N)N)C(=O)NCC(=O)N[C@@H](CCCNC(=N)N)C(=O)NCC(=O)O)C(C)C |  | 14.1 mL |  | 
CC[C@H](C)[C@H](NC(=O)[C@H](Cc1ccccc1)NC(=O)[C@H](CCC(=O)O)NC(=O)[C@H](CCCCNC(=O)[C@H](CCCNC(=O)COc1ccc(-c2ccc(F)cc2F)cc1C(=O)O)NC(=O)CC[C@H](NC(=O)Cc1c(C)n(C(=O)c2ccc(Cl)cc2)c2ccc(OC)cc12)C(=O)O)NC(=O)[C@H](C)NC(=O)[C@H](C)NC(=O)[C@H](CCC(N)=O)NC(=O)CNC(=O)[C@H](CCC(=O)O)NC(=O)[C@H](CC(C)C)NC(=O)[C@H](Cc1ccc(O)cc1)NC(=O)[C@H](CO)NC(=O)[C@H](CO)NC(=O)[C@@H](NC(=O)[C@H](CC(=O)O)NC(=O)[C@H](CO)NC(=O)[C@@H](NC(=O)[C@H](Cc1ccccc1)NC(=O)[C@@H](NC(=O)CNC(=O)[C@H](CCC(=O)O)NC(=O)[C@H](C)NC(=O)[C@@H](N)Cc1cnc[nH]1)[C@@H](C)O)[C@@H](C)O)C(C)C)C(=O)N[C@@H](C)C(=O)N[C@@H](Cc1c[nH]c2ccccc12)C(=O)N[C@@H](CC(C)C)C(=O)N[C@H](C(=O)N[C@@H](CCCNC(=N)N)C(=O)NCC(=O)N[C@@H](CCCNC(=N)N)C(=O)NCC(=O)O)C(C)C | Active | 6.6 mL | Dose-dependent effect | Activity [9]: Active; Activity [10]: 21.6 nm; AUC [5]: 642 mmol·min/L; Activity [11]: 1.62 g; half-life [7]: 299 min; Tmax [8]: 240 min
CC[C@H](C)[C@H](NC(=O)[C@H](Cc1ccccc1)NC(=O)[C@H](CCC(=O)O)NC(=O)[C@H](CCCCNC(=O)COCCOCCNC(=O)COc1ccc(-c2ccc(F)cc2F)cc1C(=O)O)NC(=O)[C@H](C)NC(=O)[C@H](C)NC(=O)[C@H](CCC(N)=O)NC(=O)CNC(=O)[C@H](CCC(=O)O)NC(=O)[C@H](CC(C)C)NC(=O)[C@H](Cc1ccc(O)cc1)NC(=O)[C@H](CO)NC(=O)[C@H](CO)NC(=O)[C@@H](NC(=O)[C@H](CC(=O)O)NC(=O)[C@H](CO)NC(=O)[C@@H](NC(=O)[C@H](Cc1ccccc1)NC(=O)[C@@H](NC(=O)CNC(=O)[C@H](CCC(=O)O)NC(=O)[C@H](C)NC(=O)[C@@H](N)Cc1cnc[nH]1)[C@@H](C)O)[C@@H](C)O)C(C)C)C(=O)N[C@@H](C)C(=O)N[C@@H](Cc1c[nH]c2ccccc12)C(=O)N[C@@H](CC(C)C)C(=O)N[C@H](C(=O)N[C@@H](CCCNC(=N)N)C(=O)NCC(=O)N[C@@H](CCCNC(=N)N)C(=O)NCC(=O)O)C(C)C | inactive |  |  | 
